Laboratory results from patent US12221494B2, “Short synthetic peptides and their uses for treating retinal degenerative diseases and/or tissue injuries” (MacKay Memorial Hospital, priority 2019, dated 2025).
Square brackets hold non-standard residues; d marks the D form. Ends that are not written are not given here.

Assays:
Neuro-2a cells = experiment: Glutamate-induced Neuro-2a cell death (LDH release); format: cell-based, mouse; conditions: glutamate-induced cell death
Experimental: Neuro-2a cells were seeded in 48-well culture plates (1.5×10^5 cells/well) for 24 h, and then cultured in 0.5 ml fresh 2% FBS-DMEM medium containing 20 μM of the present peptide (7 μg of 6-mer in 0.5 ml medium) for further 4 h. Subsequently, 100 mM glutamate (from 1 M stock and PBS as solvent) was added to cells for further 6 h. Glutamate-induced cell death was quantitatively assessed by measuring lactate dehydrogenase (LDH) activity released into the culture medium by damaged cells. LDH activity was measured using PicoProbe™ LDH-Cytotoxicity Fluorometric Assay Kit (Catalog #K314-500; BioVision) according to the instruction manuals. LDH activity was estimated using an automated microplate reader (UVmax; Molecular Devices, San Francisco, CA) by measuring the fluorescent product (Ex/Em=535/587 nm).
Briefly, cells were pretreated with the designated peptide (i.e., any of SEQ ID NOs: 2 to 11) for 4 h and then treated with 100 mM glutamate for 6 h. The cell death was detected by a commercial lactate dehydrogenase (LDH) Cytotoxicity Assay Kit. Results are depicted in FIG. 1.

STAT3 = experiment: Western blot of STAT3 phosphorylation in C2C12 cells; format: cell-based, mouse; conditions: C2C12 myoblast cells, 5 to 20 min after stimulation
Experimental: Cell lysis, fractionation, and SDS-PAGE were conducted in accordance with procedures described previously (Yang Y C et al., BMC Cancer 2007; 7:216). Antibodies used in this study were for Phospho-Stat3 and STAT3 (1:1000-fold dilution). Proteins of interest were detected using the appropriate IgG-HRP secondary antibody (Santa Cruz Biotechnology) and ECL reagent (Amersham Biosciences).

ARPE-19 cells = experiment: 4-HNE induced apoptosis of ARPE-19 cells (TUNEL staining); format: cell-based, human; conditions: 20 μM peptide pretreatment, 25 μM 4-HNE 24 h
Experimental: FIG. 6. The protective effect of the 6-mer dS on ARPE-19 cells against 4-HNE induced apoptosis. Cells were deprived of serum for 24 h and then pretreated with 20 μM 6-mer dS or solvent prior to exposed with 25 μM 4-HNE for additional 24 h. Apoptosis was determined by TUNEL staining (green dots) and counter-stained with Hoechst 33258 (blue dots). (A) Representative graphs from three independent experiments are shown. (B) The percentage of cell death was quantified by dividing the number of TUNEL-positive cells to a population of 2000 counted cells per condition. TUNEL, terminal deoxynucleotidyl transferase-mediated dUTP nick end-labeling. ^aP<0.00003 versus solvent-treated cells. ^bP<0.0006 versus solvent/4-HNE-treated cells.
Reference is made to FIG. 6, which depicts the protective effect of 6-mer dS or 6-mer dE on 4-hydroxy-2-nonenal (4-HNE) induced apoptosis of ARPE-19 cells. 4-hydroxy-2-nonenal (4-HNE) is a product of lipid oxidation, and is also considered as one of the most formidable reactive aldehydes capable of forming adduct with various cellular targets, particularly proteins involve in redox signaling.

NH2-(D-Ser)-Leu-Gly-Ala-Glu-COOH (SLGAE; HELM PEPTIDE1{[dS].L.G.A.E}$$$$V2.0; SMILES CC(C)C[C@H](NC(=O)[C@H](N)CO)C(=O)NCC(=O)N[C@@H](C)C(=O)N[C@@H](CCC(=O)O)C(=O)O) [5-mer dS]
protective effect on Neuro-2a cells (neuroprotective activity), in words (Neuro-2a cells): lacks any significant neuroprotective activity
STAT3 phosphorylation (immunoblot) (STAT3): possessed no such effect

NH2-Ser-Leu-Gly-Ala-Glu-Gln-COOH ([dS]LGAEQ; not fully specified (N-terminus, C-terminus); printed as NH2-Ser-Leu-Gly-Ala-Glu-Gln-COOH) [Peptide 6-mer]
4-HNE induced apoptosis (TUNEL), in words (ARPE-19 cells): 6-mer dS being more effective than the 6-mer
